ChEMBL document CHEMBL5579790, “Development of novel β2-adrenergic receptor agonists for the stimulation of glucose uptake - The importance of chirality and ring size of cyclic amines” (Bioorg Med Chem Lett, 2024)

molecular target: Beta-2 adrenergic receptor (Rattus norvegicus) (UniProt P10608); assay: Agonist activity at beta2-adrenergic receptor in rat L6 cells transfected with GLUT4 assessed as stimulation of skeletal muscle glucose uptake at 10 uM relative to isoprenaline; type: functional, cell-based; conditions: not given
Sequence (P10608 whole entry, looked up): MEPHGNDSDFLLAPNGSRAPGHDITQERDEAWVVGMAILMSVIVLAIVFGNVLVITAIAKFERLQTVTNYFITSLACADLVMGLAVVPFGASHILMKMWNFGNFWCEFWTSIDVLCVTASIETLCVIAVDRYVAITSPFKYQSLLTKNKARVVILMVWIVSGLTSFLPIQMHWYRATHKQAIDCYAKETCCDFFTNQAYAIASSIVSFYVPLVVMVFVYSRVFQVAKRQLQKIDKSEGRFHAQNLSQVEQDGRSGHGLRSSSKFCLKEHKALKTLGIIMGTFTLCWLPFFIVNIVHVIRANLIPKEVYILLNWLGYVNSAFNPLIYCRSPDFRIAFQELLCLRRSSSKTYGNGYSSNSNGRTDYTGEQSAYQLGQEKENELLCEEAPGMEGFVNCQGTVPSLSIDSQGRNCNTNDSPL

Compared with `CCC[C@H]1CC[C@H]([C@@H](O)c2cccc(F)c2)N1`, `CCC[C@H]1CC[C@@H]([C@H](O)c2cccc(F)c2)N1` is higher in Activity: 20% for the first, 27% for the second.

First: CCC[C@H]1CCCC[C@H]([C@@H](O)c2cccc(F)c2)N1
Second: CCC[C@@H]1CCCC[C@@H]([C@@H](O)c2cccc(F)c2)N1
The Activity of the first is higher: 15% for the first, under 10% for the second.

Going from `CCC[C@@H]1C[C@@H]([C@H](O)c2cccc(F)c2)N1` to `CCC[C@H]1C[C@H]([C@@H](O)c2cccc(F)c2)N1`, the Activity rises from 31% to 37%.

Compared with `CCC[C@H](C)NC[C@@H](O)c1cccc(O)c1`, `CCCCNC[C@@H](O)c1cccc(O)c1` is lower in Activity: 32% for the first, under 10% for the second.

Going from `CCCCNC[C@@H](O)c1cccc(F)c1` to `CCC[C@H]1C[C@@H]([C@H](O)c2cccc(F)c2)N1`, the Activity rises from under 10% to 19%.

Compared with `CCC[C@@H]1CCC[C@@H]([C@@H](O)c2cccc(F)c2)N1`, `CCC[C@@H]1CCCC[C@H]([C@H](O)c2cccc(F)c2)N1` is higher in Activity: under 10% for the first, 39% for the second.

First: CCC[C@@H]1CCCC[C@@H]([C@H](O)c2cccc(F)c2)N1
Second: CCC[C@H]1CCCC[C@@H]([C@H](O)c2cccc(F)c2)N1
The Activity of the first is lower: 12% for the first, 19% for the second.

Work on `CCC[C@H]1CCCC[C@@H]([C@@H](O)c2cccc(F)c2)N1` yielded an Activity of 39%.

same assay, conditions: filed as agonist

In order of falling Activity:
1. CCC[C@@H](C)NC[C@H](O)c1cccc(O)c1  130%
2. CCC[C@@H]1CC[C@H]([C@H](O)c2cccc(F)c2)N1  110%
3. CCC[C@@H]1C[C@H]([C@H](O)c2cccc(F)c2)N1  103%
4. CCC[C@@H](C)NC[C@H](O)c1cccc(F)c1  90%
5. CCC[C@H](C)NC[C@H](O)c1cccc(O)c1  79%
6. CCC[C@H](C)NC[C@H](O)c1cccc(F)c1  75%
7. CCC[C@H]1C[C@H]([C@H](O)c2cccc(F)c2)N1  72%
8. CCC[C@H]1CCC[C@@H]([C@H](O)c2cccc(F)c2)N1  67%
9. CCC[C@H]1CC[C@@H]([C@@H](O)c2cccc(F)c2)N1  64%
10. CCCCNC[C@H](O)c1cccc(O)c1  63%
11. CCC[C@@H]1CC[C@@H]([C@@H](O)c2cccc(F)c2)N1  57%
12. CCCCNC[C@H](O)c1cccc(F)c1  57%
13. CCC[C@H]1CCC[C@H]([C@@H](O)c2cccc(F)c2)N1  56%
14. CCC[C@H]1CCC[C@H]([C@H](O)c2cccc(F)c2)N1  54%
15. CCC[C@@H](C)NC[C@@H](O)c1cccc(O)c1  53%
16. CCC[C@@H]1C[C@H]([C@@H](O)c2cccc(F)c2)N1  53%
17. CCC[C@@H]1CCC[C@H]([C@H](O)c2cccc(F)c2)N1  52%
18. CCC[C@H]1CC[C@H]([C@H](O)c2cccc(F)c2)N1  52%
19. CCC[C@@H]1CCCC[C@H]([C@@H](O)c2cccc(F)c2)N1  52%
20. CCC[C@@H]1CCC[C@H]([C@@H](O)c2cccc(F)c2)N1  50%
21. CCC[C@H]1CCC[C@@H]([C@@H](O)c2cccc(F)c2)N1  48%
22. CCC[C@@H]1C[C@@H]([C@@H](O)c2cccc(F)c2)N1  47%
23. CCC[C@H]1CCCC[C@H]([C@H](O)c2cccc(F)c2)N1  47%
24. CCC[C@H]1C[C@@H]([C@@H](O)c2cccc(F)c2)N1  45%
25. CCC[C@@H]1CC[C@@H]([C@H](O)c2cccc(F)c2)N1  43%
26. CCC[C@@H]1CCC[C@@H]([C@H](O)c2cccc(F)c2)N1  42%
27. CCC[C@@H]1CC[C@H]([C@@H](O)c2cccc(F)c2)N1  41%
